From the NIST ThermoML archive (doi:10.1016/j.jct.2018.11.014)

Settings: 101.33 kPa, Crystal, Vacuum adiabatic calorimetry

O=C(CO)[C@@H](O)[C@@H](O)[C@H](O)CO [D-(-)-tagatose]
Settings	molar entropy [J/K/mol]
10 K	0.24
20 K	2.37
30 K	6.67
40 K	12.43
50 K	19.05
60 K	26.17
70 K	33.58
80 K	41.15
90 K	48.83
100 K	56.57
110 K	64.33
120 K	72.1
130 K	79.86
140 K	87.6
150 K	95.33
160 K	103.03
170 K	110.71
180 K	118.38
190 K	126.03
200 K	133.66
210 K	141.29
220 K	148.91
230 K	156.53
240 K	164.14
250 K	171.76
260 K	179.37
270 K	187
280 K	194.64
290 K	202.3
298.15 K	208.54
300 K	209.96
310 K	217.63
320 K	225.31
330 K	232.99

O=C(CO)[C@@H](O)[C@H](O)[C@H](O)CO [D-fructose]
Settings	molar entropy [J/K/mol]
10 K	0.22
20 K	2.49
30 K	7.15
40 K	13.3
50 K	20.28
60 K	27.72
70 K	35.42
80 K	43.25
90 K	51.17
100 K	59.14
110 K	67.11
120 K	75.09
130 K	83.05
140 K	91
150 K	98.92
160 K	106.81
170 K	114.68
180 K	122.52
190 K	130.34
200 K	138.14
210 K	145.91
220 K	153.67
230 K	161.42
240 K	169.16
250 K	176.89
260 K	184.62
270 K	192.35
280 K	200.07
290 K	207.79
298.15 K	214.09
300 K	215.52
310 K	223.26
320 K	231.02
330 K	238.78

O=C(CO)[C@H](O)[C@H](O)[C@H](O)CO [D-psicose]
Settings	molar entropy [J/K/mol]
10 K	0.25
20 K	2.96
30 K	8.19
40 K	14.69
50 K	21.82
60 K	29.28
70 K	36.93
80 K	44.67
90 K	52.46
100 K	60.26
110 K	68.06
120 K	75.83
130 K	83.57
140 K	91.28
150 K	98.95
160 K	106.58
170 K	114.19
180 K	121.76
190 K	129.31
200 K	136.83
210 K	144.33
220 K	151.81
230 K	159.28
240 K	166.73
250 K	174.17
260 K	181.61
270 K	189.03
280 K	196.45
290 K	203.86
298.15 K	209.9
300 K	211.27
310 K	218.67
320 K	226.07
330 K	233.48
